Measurements from patent US10792289B2 (Horizon Orphan LLC, priority 2009, dated 2020).
Read-outs that look alike come from different tables or passages of the source.

Test system: P. aeruginosa isolates
Experiment: Phase 2 study: MIC of P. aeruginosa isolates to levofloxacin
Format: cell-based
Settings: Pseudomonas aeruginosa
Description: Efficacy was evaluated by microbiologic assessment of sputum samples, time to need for anti-pseudomonal antimicrobials, the Cystic Fibrosis Questionaire-Revised (CFQ-R), and pulmonary function tests. […] Pair-wise comparisons between all the treatment arms were conducted as secondary analyses.

Question: With `C[C@H]1COc2c(N3CCN(C)CC3)c(F)cc3c(=O)c(C(=O)O)cn1c23` [Levofloxacin, levofloxacin] as the compound, how does the MIC50 (336 h, MITT, combined 240 mg QD and BID, Day 14, read-out: MIC50 (all organisms)) read?
Answer: The MIC50 was 4 µg/mL.

Question: And the MIC90 (336 h, MITT, combined 240 mg QD and BID, Day 14, read-out: MIC90 (all organisms))?
Answer: The MIC90 was 16 µg/mL.

Question: And the MIC50 (336 h, Table 14, EE, 120 mg QD, Day 14, read-out: MIC50 (all organisms))?
Answer: The MIC50 was 8 µg/mL.

Question: And the MIC90 (336 h, Table 14, EE, 120 mg QD, Day 14, read-out: MIC90 (all organisms))?
Answer: The MIC90 was 32 µg/mL.

Question: What about the MIC50 (336 h, Table 14, EE, 240 mg BID, Day 14, read-out: MIC50 (all organisms)) of the same compound?
Answer: The MIC50 was 4 µg/mL.

Question: What about the MIC90 (336 h, Table 14, EE, 240 mg BID, Day 14, read-out: MIC90 (all organisms)) of the same compound?
Answer: The MIC90 was 32 µg/mL.

Question: And the MIC50 (336 h, Table 14, EE, 240 mg QD, Day 14, read-out: MIC50 (all organisms))?
Answer: The MIC50 was 8 µg/mL.

Question: And the MIC90 (336 h, Table 14, EE, 240 mg QD, Day 14, read-out: MIC90 (all organisms))?
Answer: The MIC90 was 16 µg/mL.

Question: What about the MIC (336 h, read-out: Highest MIC to levofloxacin, mean (SD), MITT, 120 mg QD, Day 14) of the same compound?
Answer: The MIC was 20.3 µg/mL.

Question: And the MIC (336 h, read-out: Highest MIC to levofloxacin, mean (SD), MITT, 240 mg BID, Day 14)?
Answer: Its MIC is 14.9 µg/mL.

Question: And the MIC (336 h, read-out: Highest MIC to levofloxacin, mean (SD), MITT, 240 mg QD, Day 14)?
Answer: The MIC was 9.28 µg/mL.

Question: And the MIC (336 h, read-out: Highest MIC to levofloxacin, mean (SD), MITT, combined 240 mg QD and BID, Day 14)?
Answer: Its MIC is 12.1 µg/mL.

Question: What about the MIC (336 h, read-out: MIC to levofloxacin (all organisms), mean (SD), EE, 120 mg QD, Day 14) of the same compound?
Answer: The MIC was 13 µg/mL.

Question: And the MIC (336 h, read-out: MIC to levofloxacin (all organisms), mean (SD), EE, 240 mg BID, Day 14)?
Answer: Its MIC is 8.4 µg/mL.

Question: What about the MIC (336 h, read-out: MIC to levofloxacin (all organisms), mean (SD), EE, 240 mg QD, Day 14) of the same compound?
Answer: The MIC was 6.6 µg/mL.

Question: And the MIC (336 h, read-out: MIC to levofloxacin (all organisms), mean (SD), EE, combined 240 mg QD and BID, Day 14)?
Answer: The MIC was 7.5 µg/mL.

Question: What about the MIC (336 h, read-out: MIC to levofloxacin (all organisms), mean (SD), MITT, 120 mg QD, Day 14) of the same compound?
Answer: The MIC was 12.9 µg/mL.

Question: And the MIC (336 h, read-out: MIC to levofloxacin (all organisms), mean (SD), MITT, 240 mg BID, Day 14)?
Answer: Its MIC is 8.2 µg/mL.

Question: What about the MIC (336 h, read-out: MIC to levofloxacin (all organisms), mean (SD), MITT, 240 mg QD, Day 14) of the same compound?
Answer: Its MIC is 6.5 µg/mL.

Question: And the MIC (336 h, read-out: MIC to levofloxacin (all organisms), mean (SD), MITT, combined 240 mg QD and BID, Day 14)?
Answer: The MIC was 7.3 µg/mL.

Question: What about the MIC (336 h, read-out: MIC to levofloxacin (all organisms), mean (SD), Table 14, EE, 120 mg QD, Day 14) of the same compound?
Answer: The MIC was 21.2 µg/mL.

Question: And the MIC (336 h, read-out: MIC to levofloxacin (all organisms), mean (SD), Table 14, EE, 240 mg BID, Day 14)?
Answer: The MIC was 15.2 µg/mL.

Question: And the MIC (336 h, read-out: MIC to levofloxacin (all organisms), mean (SD), Table 14, EE, 240 mg QD, Day 14)?
Answer: Its MIC is 9.56 µg/mL.

Question: And the MIC (336 h, read-out: MIC to levofloxacin (all organisms), mean (SD), Table 14, EE, combined 240 mg QD and BID, Day 14)?
Answer: Its MIC is 12.3 µg/mL.

Question: And the MIC50 (672 h, EE and MITT, 120 mg QD, Day 28, read-out: MIC50 for P. aeruginosa isolates)?
Answer: Its MIC50 is 8 µg/mL.

Question: And the MIC90 (672 h, EE and MITT, 120 mg QD, Day 28, read-out: MIC90 for P. aeruginosa isolates)?
Answer: Its MIC90 is 32 µg/mL.

Question: What about the MIC50 (672 h, EE and MITT, 240 mg BID, Day 28, read-out: MIC50 for P. aeruginosa isolates) of the same compound?
Answer: Its MIC50 is 8 µg/mL.

Question: What about the MIC90 (672 h, EE and MITT, 240 mg BID, Day 28, read-out: MIC90 for P. aeruginosa isolates) of the same compound?
Answer: Its MIC90 is 32 µg/mL.

Question: And the MIC50 (672 h, EE and MITT, 240 mg QD, Day 28, read-out: MIC50 for P. aeruginosa isolates)?
Answer: Its MIC50 is 8 µg/mL.

Question: And the MIC90 (672 h, EE and MITT, 240 mg QD, Day 28, read-out: MIC90 for P. aeruginosa isolates)?
Answer: The MIC90 was 16 µg/mL.

Question: And the MIC50 (672 h, EE, 120 mg QD, Day 28, read-out: MIC50 (all organisms))?
Answer: The MIC50 was 4 µg/mL.

Question: And the MIC90 (672 h, EE, 120 mg QD, Day 28, read-out: MIC90 (all organisms))?
Answer: Its MIC90 is 16 µg/mL.

Question: What about the MIC50 (672 h, EE, 240 mg BID, Day 28, read-out: MIC50 (all organisms)) of the same compound?
Answer: The MIC50 was 4 µg/mL.

Question: And the MIC90 (672 h, EE, 240 mg BID, Day 28, read-out: MIC90 (all organisms))?
Answer: The MIC90 was 32 µg/mL.

Question: And the MIC50 (672 h, EE, 240 mg QD, Day 28, read-out: MIC50 (all organisms))?
Answer: The MIC50 was 4 µg/mL.

Question: What about the MIC90 (672 h, EE, 240 mg QD, Day 28, read-out: MIC90 (all organisms)) of the same compound?
Answer: Its MIC90 is 16 µg/mL.

Question: And the MIC50 (672 h, EE, combined 240 mg QD and BID, Day 28, read-out: MIC50 (all organisms))?
Answer: Its MIC50 is 4 µg/mL.

Question: What about the MIC90 (672 h, EE, combined 240 mg QD and BID, Day 28, read-out: MIC90 (all organisms)) of the same compound?
Answer: Its MIC90 is 16 µg/mL.

Question: And the MIC50 (672 h, MITT, 120 mg QD, Day 28, read-out: Highest MIC, MIC50)?
Answer: The MIC50 was 8 µg/mL.

Question: What about the MIC90 (672 h, MITT, 120 mg QD, Day 28, read-out: Highest MIC, MIC90) of the same compound?
Answer: Its MIC90 is 32 µg/mL.

Question: What about the MIC50 (672 h, MITT, 120 mg QD, Day 28, read-out: MIC50 (all organisms)) of the same compound?
Answer: The MIC50 was 4 µg/mL.

Question: What about the MIC90 (672 h, MITT, 120 mg QD, Day 28, read-out: MIC90 (all organisms)) of the same compound?
Answer: The MIC90 was 16 µg/mL.

Question: What about the MIC50 (672 h, MITT, 240 mg BID, Day 28, read-out: Highest MIC, MIC50) of the same compound?
Answer: Its MIC50 is 8 µg/mL.

Question: What about the MIC90 (672 h, MITT, 240 mg BID, Day 28, read-out: Highest MIC, MIC90) of the same compound?
Answer: The MIC90 was 16 µg/mL.

Question: And the MIC50 (672 h, MITT, 240 mg BID, Day 28, read-out: MIC50 (all organisms))?
Answer: Its MIC50 is 4 µg/mL.

Question: What about the MIC90 (672 h, MITT, 240 mg BID, Day 28, read-out: MIC90 (all organisms)) of the same compound?
Answer: Its MIC90 is 32 µg/mL.

Question: And the MIC50 (672 h, MITT, 240 mg QD, Day 28, read-out: Highest MIC, MIC50)?
Answer: Its MIC50 is 8 µg/mL.

Question: And the MIC90 (672 h, MITT, 240 mg QD, Day 28, read-out: Highest MIC, MIC90)?
Answer: The MIC90 was 16 µg/mL.

Question: What about the MIC50 (672 h, MITT, 240 mg QD, Day 28, read-out: MIC50 (all organisms)) of the same compound?
Answer: The MIC50 was 4 µg/mL.

Question: And the MIC90 (672 h, MITT, 240 mg QD, Day 28, read-out: MIC90 (all organisms))?
Answer: The MIC90 was 16 µg/mL.

Question: And the MIC50 (672 h, MITT, combined 240 mg QD and BID, Day 28, read-out: Highest MIC, MIC50)?
Answer: Its MIC50 is 8 µg/mL.
